Reference: US20240316074A1 (priority 2021, published 2024)
In brackets after ≈: the same amount, converted by molar mass.

Tests used:
Type in all cases: cell-based
[1] = tested on: SARS-CoV-2 variant B.1.1.7; assay: microbe, parasite or virus in culture; settings: Severe acute respiratory syndrome coronavirus 2, Vero C1008
[2] = tested on: SARS-CoV-2 spike pseudotyped lentivirus; assay: organism not typed; settings: HEK-293T, read-out: IC50, concentration which reduced pseudovirus infections by half
[3] = tested on: SARS-CoV-2 variant B.1.351; assay: microbe, parasite or virus in culture; settings: Severe acute respiratory syndrome coronavirus 2, Vero C1008

Compound	IC50 [1] [µg/mL]	IC50 [2] [µg/mL]	IC50 [3] [µg/mL]
C=C(C)[C@@H]1CCC(C)=C[C@H]1c1c(O)cc(CCCCC)c(C(=O)O)c1O [CBDA, Cannabidiolic acid]	11 (≈ 30.7 µM)	7.7 (≈ 21.5 µM)	19 (≈ 53 µM)
CCCCCc1cc(O)c(C/C=C(\C)CCC=C(C)C)c(O)c1C(=O)O [CBGA, Cannabigerolic acid]	26 (≈ 72.1 µM)	8.4 (≈ 23.3 µM)	37 (≈ 103 µM)
